The values that follow come from US11230558B2, “Activators of autophagic flux and phospholipase D and clearance of protein aggregates including tau and treatment of proteinopathies” (THE TRUSTEES OF COLUMBIA UNIVERSITY IN THE CITY OF NEW YORK, priority 2015, dated 2022).

The nature of data set [1]: Photodiode array (PDA) detection in mouse brain. Format: in vivo. Conditions: FIG. 1. An excerpt: FIG. 1 is a graph showing a photodiode array (PDA) spectrum of WHYKD8 in mouse brain.
A photodiode array (PDA) was used to detect WHYKD8 in mouse brain (FIG. 1).

The test system of another data set is Autophagy Markers. Nature of the data set: Autophagy markers (Cyto-ID assay) in HEK 293 cells expressing mKate2 Tau. Format: cell-based, Human. Conditions: HEK 293 mKate2 Tau cells. Here is the method:
The dye used in the kit prevents its accumulation within lysosomes, but enables labelling of vacuoles associated with the autophagy pathway using the LC3 biomarker.
The test compounds (along with CytoID™ dye and Hoechst stain) were added to the cells and incubated for 3 hours. Reference compounds were also used in each plate, Rapamycin was used for autophagy induction and chloroquine was used for lysosomal inhibition. After 3 hours test compound was aspirated off and kept. Cells were then washed and read using a fluorescence plate reader. Hoescht, Cyto-ID™ and mKate2 were measured using 3 distinct wavelengths on the plate reader. The Hoescht measurement allowed normalisation of results across wells. After reading, test compound was re-added and the cells are left for a further 21 hours. At the 24 hour time point cells were once again washed and plates read using the fluorescence plate reader.
2) Test samples were prepared in warm FluoroBrite™ DMEM and with 10% FBS and 1% NEAA (FB-DMEM). […]
5) Treatment plate was then washed quickly 3 times with warm FB-DMEM (100 μL/well). […] At this point, the plate was ready for reading. See details in Reading Plate section. Hoescht was read at Excitation wavelength (Ex)=355 nm & Emission wavelength (Em)=446 nm. mKate2 was read at Ex=575 nm & Em=630 nm. Cyto-ID™ was read at Ex=463 nm & Em=534 nm. […]

The test system of data set [2] is HEK 293 (Human Embryo Kidney) cell line.
Procedure: The cells were grown in the presence of the antibiotic doxycycline. When the antibiotic is removed the cells produce Tau (which can be quantified), thus allowing the test compounds' effects on Tau's production to be compared. Doxycycline was removed for 72 hours prior to exposure to the test compounds to promote sufficient Tau production. Cells were subsequently plated into plates for each of the assays described below.
The target in the next data set is T1, PLD2 (Homo sapiens, UniProt O14939).
T1 construct: endogenous in cells; host or cells: HEK 293 Jump-In cells expressing mKate2-Tau
Nature of the data set: PLD2 activity: Proteostat/mKate2 with PLD1 inhibitor VU0150669. Format: cell-based. On the procedure: The assay was run in e18 primary cortical neurons from PLD1 or PLD2 KO mice cultured for 14 days. Alternatively, the assay can be run in the cells described above in the presence of excess PLD1 or PLD2 inhibitor to preclude that particular action from contributing to the effect of the drug.
4) On the day of experiment, cells were washed in warmed HBSS twice before media containing test compound (n=3 per compound per dose), inhibitor (355 nM ML298 or 50 nM VU0150669), or vehicle are added to the wells (1.5 mL in 6 well, 600 μL in 12 well). Plates were incubated for 24 hours at 37° C. with 5% CO2.

T1 sequence (O14939 whole entry): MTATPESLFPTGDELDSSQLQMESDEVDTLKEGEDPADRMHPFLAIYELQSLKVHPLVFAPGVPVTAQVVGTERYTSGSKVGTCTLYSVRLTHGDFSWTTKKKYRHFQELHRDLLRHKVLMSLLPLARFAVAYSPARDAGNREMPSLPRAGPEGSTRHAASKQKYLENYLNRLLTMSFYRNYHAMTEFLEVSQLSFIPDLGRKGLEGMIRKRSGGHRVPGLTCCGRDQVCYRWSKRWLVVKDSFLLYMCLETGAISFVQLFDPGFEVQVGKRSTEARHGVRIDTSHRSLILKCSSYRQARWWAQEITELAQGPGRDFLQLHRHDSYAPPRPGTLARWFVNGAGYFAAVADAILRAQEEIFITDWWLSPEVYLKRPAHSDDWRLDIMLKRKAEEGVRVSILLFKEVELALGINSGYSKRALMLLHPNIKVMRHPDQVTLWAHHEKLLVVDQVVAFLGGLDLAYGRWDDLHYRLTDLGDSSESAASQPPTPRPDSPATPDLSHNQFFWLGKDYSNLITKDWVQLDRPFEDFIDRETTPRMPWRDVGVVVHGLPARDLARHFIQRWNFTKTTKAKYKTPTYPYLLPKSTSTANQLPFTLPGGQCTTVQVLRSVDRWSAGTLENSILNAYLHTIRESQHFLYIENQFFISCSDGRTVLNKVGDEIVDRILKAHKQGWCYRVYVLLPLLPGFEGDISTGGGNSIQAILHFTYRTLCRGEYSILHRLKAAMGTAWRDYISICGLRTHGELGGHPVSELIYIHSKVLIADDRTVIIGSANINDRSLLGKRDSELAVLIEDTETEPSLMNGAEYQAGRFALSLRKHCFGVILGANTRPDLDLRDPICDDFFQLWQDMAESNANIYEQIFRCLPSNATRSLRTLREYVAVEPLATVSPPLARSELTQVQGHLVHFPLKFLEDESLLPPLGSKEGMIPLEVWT

Regarding `Oc1ccc(CCNc2ncnc3ccc(Cl)cc23)cc1` [WHYKD8], in data set [1], the “detection in mouse brain by photodiode array” value is “readily detected”.

As to `Fc1ccc2ncnc(SC3CCOCC3)c2c1` [WHYKD19], in the data set on Autophagy Markers, the “% Increase Autophagy Markers” value stood at 350%. For the compound `c1cnc2c(SC3CCCC3)ncnc2c1` [WHYKD36], the midpoint of cytotoxicity in data set [2], the CC50, lay at 67 µM. Further, on PLD2 (ratio of Proteostat values), the “Proteostat PLD2/PLD1 ratio” value came to 1.5. For the same compound, the “mKate2 PLD2/PLD1 ratio” value at PLD2 (ratio of mKate2 values) came out at 1.7.
